Broadly, the pEC50 is the negative decadic logarithm of the EC50, by convention in mol/L. Read a high pEC50 as a small EC50.

pEC50: −log10 of the molar value. Where “and” joins values, the source holds several entries; their conditions need not be identical. Identical values can stand only once. Like-named read-outs stand apart in the source and are kept apart here. No end group written: not given here.

Data on three sequences can be found in patent US11517617B2, “Methods and compositions for preventing influenza infection” (THE UNIVERSITY OF MELBOURNE, priority 2017, dated 2022).

For test [1], the system named is CD8^+ T cells.
A further test relates to tetramer^+CD8^+ T cells. The format is cell-based, human.
The subject of the next test is A2/PB1413^+CD8^+ T cells. The format is cell-based, human.
In a further test the test system is IBV. Set-up: species or system HHD-A2 mice. The conditions noted are these: mouse, in vivo.
For test [2], the system named is CD8^+ T cells. Type of test: cell-based, human.
The test system of test [3] is A2/PB1413-specific CD8^+ T cells. The format is cell-based, human. The conditions noted are these: n=24.
Test [4] deals with memory CD8^+ T cells within PBMCs. Type of test: cell-based, human.
Test [5] concerns tetramer^+ CD8^+ T cells. As to the kind of experiment: Tetramer staining of IAV- or IBV-specific CD8^+ T cell lines established in vitro from healthy adult PBMC. The format is cell-based, human. To be noted: for tetramer^+ of CD8^+ T cells, median: n=11. From the text: Conversely, the universal A2/PB1413 epitope within the IBV-specific T cell lines was immunodominant (0.3%; detected in 8/11 donors) over the IBV-specific A2/BHA543 (0.11%; detected in 10/11 donors) and A2/BNS1266 epitopes (0.01%) (FIG. 4c).

Test [6] relates to tetramer^+ CD8^+ T cells. Type of test: cell-based, human.
The next test relates to human lung CD8^+ T cells. As to the kind of experiment: Ex vivo tetramer detection in human lung samples from deceased organ donors. To be noted: for epitope-specific CD8^+ T cells detected within human lung CD8^+ T cells: n=3 lung donors. Type of test: cell-based. An excerpt: As human memory CD8^+ T cells also reside outside the circulation, a rare set of human lung samples from deceased organ donors (n=3) were used to assess the presence of universal A2/PB1413^+CD8^+ T cells at the site of infection. CD8^+ T cells specific for A2/M158 and A2/PB1413, but not A2/BHA543 were detected within human lung CD8^+ T cells (2/3 donors for either specificity, FIG. 3f). […] Although based on a limited number of donors, this analysis indicates the presence of universal A2/PB1413^+ tissue-resident memory CD8^+ T cell pools in the human lung.

In test [7] the target is T1, HLA-A*02:01 (Homo sapiens, UniProt P04439, D140Y/D185E/D98H/E176V/E277Q/G131W/G231S/I119V/I121R/I166T/I218V/L300P/L318F/N151K/N90K/P208A/P217A/Q86G/Q94H/R138H/R169H/T345S). As to the kind of experiment: Thermal stability of pHLA-A*02:01 complex (Tm). Type of test: binding.
Test [8] concerns CD8^+ T cells. As to the kind of experiment: In vitro screening and validation in HLA-A*02:01-expressing human PBMCs, CD8^+ T cell lines, IFNγ/TNF ICS. The format is cell-based. An excerpt:
As a next step, the IBV-specific CD8^+ T cell responses towards the 67 LC/MS-identified IBV-peptides in HLA-A*02:01-expressing individuals were dissected. CD8^+ T cell lines specific for each of the 6 peptide pools were established, and then re-stimulated cells with the cognate pool in an IFNγ/TNF ICS assay (FIG. 2f).
To validate these responses independently of the peptide pools, CD8^+ T cell lines were established towards individual immunogenic peptides (FIG. 2i). […] Thus, these thorough in vivo and in vitro analyses identified 5 novel peptides recognized by CD8^+ T cells in complex with the HLA-A*02:01 molecule, with BHA543-551 being immunodominant amongst the peptides tested, in both mice and humans.
Peripheral blood mononuclear cells (PBMC) from healthy A2:01+ donors were cultured in the presence of antigens (10 μM peptide) for 10 days in the presence of IL-2 (10 U/ml). On day 10 PBMCs were stimulated with peptides (1 μM) for 5 hours in the presence of BFA. Cells were surface stained for CD3 and CD8 and intracellularly stained for IFNγ and TNF using the BD cytofix/cytoperm kit according to the manufacturer's instructions (BD Biosciences).
Any pools with positive ICS responses were then dissected to their individual peptides.

Test [9] has as its system CD8^+ T cells. As to the kind of experiment: Recall responses in HHD-A2 mice primed with B/Malaysia and challenged with B/Phuket. Type of test: in vivo. An excerpt: To further verify the immunogenicity of these epitopes in recall responses, HHD-A2 mice were primed i.n. with B/Malaysia, infected with the heterologous strain B/Phuket 6 weeks later and then assessed CD8^+ T cells against the main epitopes A2/BHA543-551 and A2/BNS1266-274 in the spleen on d8 after challenge.

The test system of test [10] is CD8^+ T cells. Type of test: cell-based, human. The source holds these as a separate data set.
The test system of test [11] is CD8^+ T cells. Set-up: species or system HHD-A2 mice. The conditions noted are these: mouse, in vivo.
For test [12], the target named is T1, HLA-A*02:01. The conditions noted are these: reference 34; cited from earlier work.
Where [13] appears, read: IAV-specific CD8^+ T cell lines.
Setting [14] is: T cell lines towards individual peptides, n=6.

For NMLSTVLGV [PB1413-421, NMLSTVLGV], the pEC50 in the test on CD8^+ T cells [1] is 9.05. Also, the “increase from baseline to d14” value in the test on tetramer^+CD8^+ T cells is 19 fold. Besides, in the test on A2/PB1413^+CD8^+ T cells, the “IFN-γ production towards peptide” value is “minimal” and the “magnitude of A2/PB1413-specific CD8^+ T cells” value is listed as “markedly increased”. The “epitope-specific CD8^+ T cells after immunization” value in the test on IBV is listed as “could not be detected”. Also, in the test with CD8^+ T cells [2], the “additional low avidity CD8^+ T cells detected by Q115E staining” value is on record as “no additional”. In [3], the “healthy donors with detectable levels of epitope-specific CD8^+ T cells” value stood at 80%. In addition, in test [4], the “memory CD8^+ T cell responses (IFN-γ production after peptide re-stimulation)” value is “robust memory CD8^+ T cell responses”. In the test with tetramer^+ CD8^+ T cells [5] (setting [13]), the “donors with detected tetramer^+ cells” value was 10/11 and the “tetramer^+ of CD8^+ T cells, median” value is recorded as 0.12%. For the same sequence, in the test on tetramer^+ CD8^+ T cells [5] (IBV-specific T cell lines), the “donors with detected tetramer^+ cells” value is given as 8/11 and the “tetramer^+ of CD8^+ T cells, median” value is 0.3%. For the same sequence, in the test on tetramer^+ CD8^+ T cells [6], the “CD38^+/Ki-67^+ expression of tetramer-positive CD8^+ T cells” value (from here on “CD38^+/Ki-67^+ expression”) is reported as “increase”; the “increase in frequency of epitope-specific CD8^+ T cells in blood versus healthy donors” value stood at 6 fold; the “increase in numbers of epitope-specific CD8^+ T cells versus healthy donors” value turned out to be 2.6 fold; the “individuals with detected epitope-specific CD8^+ T cells” value (“individuals” below) is 50% and 87.5%. The “phenotype of the majority of lung tetramer^+ CD8^+ T cells” value in the test with human lung CD8^+ T cells (human lung) was “tissue-resident memory CD69^+CD103^+CD45RO^+ phenotype”. The “epitope-specific CD8^+ T cells detected within human lung CD8^+ T cells” value in the test on human lung CD8^+ T cells is recorded as 2/3. Further, the “Tm (temperature required to unfold 50% of the protein) of pHLA-A*02:01 complex” value on HLA-A*02:01 [7] was around 72 °C.
With GLDNHTILL [HA543-551, GLDNHTILL], the “ICS responses in healthy A2:01+ donors” value in the test on CD8^+ T cells [8] (10 days culture with 10 μM peptide and IL-2, re-stimulation 1 μM) is listed as “detected across multiple donors”. In the test on CD8^+ T cells [8] (HLA-A*0201^+ donors, dissection of pools into individual peptides), the “CD8^+ T cell response hierarchy of individual peptides” value is “immunodominant epitope”. In addition, in the test with CD8^+ T cells [8] (setting [14]), the “CD8^+ T cell response, median” value was 7.35 % of CD8^+ T cells and the donors with response is listed as 6/6. In the test on CD8^+ T cells [1], the negative-log EC50 (pEC50) was 9.11. The “d14 frequency lower than universal A2/PB1413^+CD8^+ T cells” value in the test with tetramer^+CD8^+ T cells is recorded as 5 fold. Besides, the “polyfunctional IFNγ^+TNF^+IL-2^+ CD8^+ T cells” value in the test with CD8^+ T cells [9] (primary infection) is on record as 0.14 % of CD8^+ T cells. Further, the “polyfunctional IFNγ^+TNF^+IL-2^+ CD8^+ T cells” value in the test on CD8^+ T cells [9] (secondary infection, p=0.013) was 2.14 % of CD8^+ T cells. In addition, the “number of secondary IFNγ^+TNF^+ CD8^+ T cells in the spleen versus primary infection” value with CD8^+ T cells [9] (spleen d8 after B/Phuket challenge, not statistically significant) is around 27 fold. For the same sequence, the “additional low avidity CD8^+ T cells detected by Q115E staining” value with CD8^+ T cells [2] is “could be detected”. In the test with CD8^+ T cells [10], the polyfunctionality result is recorded as “inferior”. Also, in the test with CD8^+ T cells [11], the “CD8+ T cell responses (IFNγ and TNF production)” value is on record as “CD8+ T cell responses were targeted”; the “CD8^+ T cell response, mean” value was 5 % of CD8^+ T cells; the “CD8^+ T cell responses at the site of infection” value is “targeted”. For the same sequence, in the test with tetramer^+ CD8^+ T cells [5] (IBV-specific T cell lines), the “donors with detected tetramer^+ cells” value is listed as 10/11 and the “tetramer^+ of CD8^+ T cells, median” value is recorded as 0.11%. In the test with tetramer^+ CD8^+ T cells [6], the “CD38^+/Ki-67^+ expression” value is listed as “increase”, the “increase in numbers of epitope-specific CD8^+ T cells versus healthy donors” value is 2.2 fold and the “individuals” value came to 75%. Moreover, in the test with human lung CD8^+ T cells, the “epitope-specific CD8^+ T cells detected within human lung CD8^+ T cells” value was “not”. At HLA-A*02:01 [7], the “Tm (temperature required to unfold 50% of the protein) of pHLA-A*02:01 complex” value is around 72 °C.
“GILGFVFVL [M158-66, GILGFVFVL, reference compound]” showed a negative logarithm of the EC50 (pEC50) in the test with CD8^+ T cells [1] of 8.09. In addition, at HLA-A*02:01 [12], the “Tm (temperature required to unfold 50% of the protein) of pHLA-A*02:01 complex” value is 65 °C. Also, in the test on tetramer^+ CD8^+ T cells [5] (setting [13]), the “donors with detected tetramer^+ cells” value amounted to 11 donors and the “tetramer^+ of CD8^+ T cells, median” value is on record as 3.9%. Besides, in the test on tetramer^+ CD8^+ T cells [6], the “CD38^+/Ki-67^+ expression” value is “increase”, the “increase in frequency of epitope-specific CD8^+ T cells in blood versus healthy donors” value is reported as 4.3 fold and the “individuals” value is recorded as 100%. In addition, the “epitope-specific CD8^+ T cells detected within human lung CD8^+ T cells” value with human lung CD8^+ T cells is given as 2/3.
